Earlier results as cited in patent publication US5482960A, “Nonpeptide endothelin antagonists” (Warner-Lambert Company, priority 1994, dated 1996).
Where a SMILES comes first, the peptide text is derived from it. [ ]: non-standard residue; d: D form.

Columns and labels:
[1] = system: ETA; conditions: oral; cited from earlier work
[2] = system: ETA; conditions: mouse model of endotoxic shock; cited from earlier work
[3] = system: ET receptor; conditions: allergic sheep; cited from earlier work
[4] = system: ETA; conditions: following subarachnoid hemorrhage; cited from earlier work
[5] = system: endothelin; conditions: rats; cited from earlier work
[6] = system: small intestinal mucosa; conditions: local intra-arterial, rats; cited from earlier work
[7] = system: liver; conditions: cited from earlier work

Compound: Cc1noc(NS(=O)(=O)c2cccc3c(N(C)C)cccc23)c1C [5-(Dimethylamino)-N-(3,4-dimethyl-5-isoxazolyl)-1-naphthalenesulfonamide]
- antihypertensive effect [1]: demonstrated an oral antihypertensive effect

Compound: CC(C)C[C@@H]1NC(=O)[C@@H](C(C)C)NC(=O)[C@@H]2CCCN2C(=O)[C@@H](CC(=O)O)NC(=O)[C@@H](Cc2c[nH]c3ccccc23)NC1=O [BQ-123] (cyclo(L[dW][dD]P[dV]))
- survival rate [2]: significantly increased the survival rate
- block of ET-1 induced bronchoconstriction and tracheal smooth muscle contraction [3]: block ET-1 induced bronchoconstriction and tracheal smooth muscle contraction
- early cerebral vasospasm [4]: prevent early cerebral vasospasm following subarachnoid hemorrhage

Compound: COc1cccc(Oc2c(NS(=O)(=O)c3ccc(C(C)(C)C)cc3)ncnc2OCCO)c1 [RO 46-2005]
- efficacy in models of acute renal ischemia and subarachnoid hemorrhage [5]: effective in models of acute renal ischemia and subarachnoid hemorrhage in rats

Compound: endothelin
- small intestinal mucosal damage [6]: induce small intestinal mucosal damage in rats in a dose-dependent manner
- vasoconstriction of the hepatic vasculature and hepatic glucose output [7]: sustained vasoconstriction of the hepatic vasculature and a significant increase in hepatic glucose output
